Assay results from publication PMC8787434, “Discovery of Novel GR Ligands toward Druggable GR Antagonist Conformations Identified by MD Simulations and Markov State Model Analysis” (Advanced Science, 2021).

Legend:
[1] = target: T1, GR (LanthaScreen TR-FRET GR Competitive Binding Assay) (Homo sapiens, UniProt P04150); assay: LanthaScreen TR-FRET competitive binding assay
T1 construct: gene NR3C1
T1 sequence (P04150 521-777 limits assumed): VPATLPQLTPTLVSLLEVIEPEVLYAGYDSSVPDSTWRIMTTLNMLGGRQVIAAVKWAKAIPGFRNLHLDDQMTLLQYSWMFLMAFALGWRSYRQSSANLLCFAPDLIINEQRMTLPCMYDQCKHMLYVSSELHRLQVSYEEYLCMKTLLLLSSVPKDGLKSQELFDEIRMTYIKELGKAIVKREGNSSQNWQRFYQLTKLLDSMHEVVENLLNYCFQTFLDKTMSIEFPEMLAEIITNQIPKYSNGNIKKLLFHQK
Source text: LanthaScreen TR-FRET competitive binding assay on GR (LanthaScreen TR-FRET GR Competitive Binding Assay)

[2] = target: T2, GR (pCMV-GR11 in Hela cells) (Homo sapiens, UniProt P04150); assay: NF-κB-Luc tethered transrepression reporter assay; type: cell-based; conditions: read-out: Cell transrepression / NF-κb (IC50 μM)
T2 construct: gene NR3C1; GR expressed from pCMV-GR11 (Addgene #89105), transiently transfected in HeLa cells
T2 sequence (P04150 1-777): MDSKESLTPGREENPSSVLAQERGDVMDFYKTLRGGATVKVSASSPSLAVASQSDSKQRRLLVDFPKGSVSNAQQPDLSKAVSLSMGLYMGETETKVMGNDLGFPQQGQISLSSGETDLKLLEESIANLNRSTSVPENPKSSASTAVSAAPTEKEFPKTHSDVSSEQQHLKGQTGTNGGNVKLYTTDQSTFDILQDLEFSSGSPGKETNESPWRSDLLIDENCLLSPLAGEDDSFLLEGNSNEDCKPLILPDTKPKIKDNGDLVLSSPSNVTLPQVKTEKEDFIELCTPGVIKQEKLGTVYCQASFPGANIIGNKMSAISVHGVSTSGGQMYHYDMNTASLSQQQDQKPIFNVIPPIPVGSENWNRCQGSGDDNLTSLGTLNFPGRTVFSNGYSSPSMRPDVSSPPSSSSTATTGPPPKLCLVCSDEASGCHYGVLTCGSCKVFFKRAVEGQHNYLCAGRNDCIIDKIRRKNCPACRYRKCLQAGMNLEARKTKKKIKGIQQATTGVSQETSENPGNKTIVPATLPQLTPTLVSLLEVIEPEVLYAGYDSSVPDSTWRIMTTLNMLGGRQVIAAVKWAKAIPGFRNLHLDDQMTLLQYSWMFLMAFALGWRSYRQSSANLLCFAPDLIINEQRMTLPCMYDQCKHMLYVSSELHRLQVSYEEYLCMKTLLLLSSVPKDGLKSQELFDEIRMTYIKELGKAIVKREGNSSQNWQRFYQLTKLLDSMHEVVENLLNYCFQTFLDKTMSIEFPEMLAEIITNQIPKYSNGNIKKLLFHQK
Source text: NF-κB-Luc tethered transrepression reporter assay on GR (pCMV-GR11 in Hela cells)

| IC50 [1] [µM] | IC50 [2] [µM] | Compound |
| --- | --- | --- |
| 4.45 ± 0.36 | 12.2 ± 1.95 | COc1ccccc1CN1Cc2cc(NS(=O)(=O)c3ccc(F)cc3)ccc2OC(C)C1=O (stereo not drawn) [HP‐26] |
| 2.53 ± 0.12 | 2.71 ± 0.72 | CC(=O)N1CCc2cc(S(=O)(=O)C(C)CC(=O)NCC(C)c3ccccc3)ccc21 (stereo not drawn) [HP‐24] |
| 1.57 ± 0.54 | 2.76 ± 0.18 | Cc1ccc(S(=O)(=O)N2CCCc3cc(NS(=O)(=O)c4ccc(F)cc4C)ccc32)cc1 [HP‐67] |
